Molecules are shown by their SMILES. *1 amine or outer side, *2 acyl side, *3 side chain or, on linkers, in order; H or OH if unused. Where a SMILES comes first, the peptide text is derived from it. Bridges are numbered along the chain shown (N, C = ends). [ ]: non-standard residue; d: D form. The star is where a group is joined. ξ: configuration not given here. NMeHph(3-OMe-4-CONHMe) = CNC(=O)c1ccc(CC[C@H](NC)C(=O)O)cc1OC; Phe(3-CONHMe,4-OMe) = CNC(=O)c1cc(C[C@H](N)C(=O)O)ccc1OC; NMePhe(3-Cl) = CN[C@@H](Cc1cccc(Cl)c1)C(=O)O; ξGln(SO2Me) = CS(=O)(=O)NC(=O)CCC(N)C(=O)O; NMehPhe = CN[C@@H](CCc1ccccc1)C(=O)O; X9 = O=C([C@@H](CN[*:1])COCCO)[*:2]; NMeF = CN[C@@H](Cc1ccccc1)C(=O)O; NMeGABA = CN(CCCC(=O)[*:2])[*:1]; NMeI = CC[C@H](C)[C@H](NC)C(=O)O; Butyl(3-Me,3-OH) = CC(C)(O)CC*; CH2CH(OH)CF3 = OC(C*)C(F)(F)F; CH2CONHtBu = CC(C)(C)NC(=O)C*; NMeL = CN[C@@H](CC(C)C)C(=O)O; Thr(3ξ) = CC(O)[C@H](N)C(=O)O; Propyl(2R-OH) = C[C@@H](O)C*; Butyl(3S-OH) = C[C@H](O)CC*; NMeV = CN[C@H](C(=O)O)C(C)C; NMeAbu = CC[C@H](NC)C(=O)O; NMeA = CN[C@@H](C)C(=O)O; Piperidide = C1CCN(*)CC1; X8 = C1COC[C@@H](C*)N1; NBuGly = CCCCNCC(=O)O; Isopentyl = CC(C)CC*; Sar = CNCC(=O)O; tBu = CC(C)(C)*

A short description of one series: in vitro. The following applies: human, Caco-2, Caco-2.
As to `CCCCN1CC(=O)N(C)[C@@H](C(C)C)C(=O)N[C@H](C(=O)N2CCCCC2)CC(=O)N(C)[C@@H](CC)C(=O)NC(CCC(=O)NS(C)(=O)=O)C(=O)N(C)[C@@H](CC(C)C)C(=O)N(C)[C@@H](Cc2cccc(Cl)c2)C(=O)N[C@@H](CC(C)C)C(=O)N(C)[C@@H](Cc2ccccc2)C(=O)N(C)[C@@H](CC(C)C)C(=O)N[C@@H]([C@@H](C)O)C1=O` (stereo partly drawn) [pd63] ([NMeAbu][ξGln(SO2Me)][NMeL][NMePhe(3-Cl)]L[NMeF][NMeL]T[NBuGly][NMeV]D-Piperidide; lactam N-11), the apparent permeability (Papp) is less than 0.1 ×10⁻⁶ cm/s.

Staying with this series, now noted: human, Caco-2, Caco-2 (cm/sec).
`CCCCN1CC(=O)N(C)[C@@H](Cc2cccc(Cl)c2)C(=O)N(C)[C@@H](CC(C)C)C(=O)N[C@@H](COCC[C@H](C)O)C(=O)N(C)[C@@H](CC(C)C)C(=O)N[C@H](C(=O)N2CCCCC2)CC(=O)N(C)CC(=O)N(C)[C@@H](Cc2ccccc2)C(=O)N[C@@H](C(C)C)C(=O)N(C)[C@@H](CC(C)C)C(=O)N[C@@H]([C@@H](C)O)C1=O` [AP106] ([Sar][NMeF]V[NMeL]T[NBuGly][NMePhe(3-Cl)][NMeL]S(Butyl(3S-OH))[NMeL]D-Piperidide; lactam N-11) returned a Papp of 0.25 ×10⁻⁶ cm/s.
Still for that read-out and setting: next, `CCCCN1CC(=O)N(C)[C@@H](CC(C)C)C(=O)N[C@@H](COC(C)(C)C)C(=O)N(C)[C@@H](Cc2ccccc2)C(=O)N(C)[C@@H](CC(C)C)C(=O)N[C@H](C(=O)N2CCCCC2)CC(=O)N[C@H](C(C)C)C(=O)N(C)[C@@H](C(C)C)C(=O)N[C@@H](Cc2ccc(OC)c(C(=O)NC)c2)C(=O)N(C)[C@@H](CC(C)C)C(=O)N[C@@H]([C@@H](C)O)C1=O` [AP35] ([dV][NMeV][Phe(3-CONHMe,4-OMe)][NMeL]T[NBuGly][NMeL]S(tBu)[NMeF][NMeL]D-Piperidide; lactam N-11): 2 ×10⁻⁶ cm/s; `CC[C@H](C)[C@@H]1NC(=O)[C@H](CC(C)C)N(C)C(=O)CCCN(C)C(=O)C[C@@H](C(=O)N2CCCCC2)NC(=O)[C@H](CC(C)C)N(C)C(=O)[C@H](CC(C)C)N(C)C(=O)[C@H]([C@@H](C)O)NC(=O)[C@H](CC(C)C)N(C)C(=O)[C@H](COCCO)CNC(=O)[C@H](CC(C)C)N(C)C(=O)[C@H](Cc2cccc(Cl)c2)N(C)C1=O` [AP130] ([NMeGABA][NMeL]I[NMePhe(3-Cl)][NMeL][X9][NMeL]T[NMeL][NMeL]D-Piperidide; lactam N-11): 0.46 ×10⁻⁶ cm/s.
The molecule `CC[C@H]1C(=O)N(C)[C@@H](Cc2ccccc2)C(=O)N[C@@H](CC(C)C)C(=O)N(C)[C@@H](CC(C)C)C(=O)N(C)[C@@H](CC(C)C)C(=O)N[C@@H](COC[C@@H]2COCCN2)C(=O)N(C)CC(=O)N(C)[C@@H](CC(C)C)C(=O)N[C@H](C(=O)N2CCCCC2)CC(=O)N(C)[C@@H](C)C(=O)N[C@@H](CC(C)C)C(=O)N1C` [AP246] ([NMeA]L[NMeAbu][NMeF]L[NMeL][NMeL]S(X8)[Sar][NMeL]D-Piperidide; lactam N-11) showed an apparent permeability (Papp) of 0.23 ×10⁻⁶ cm/s.
Still for that read-out and setting: under `CC(C)C[C@@H]1NC(=O)[C@H](CC(C)C)N(C)C(=O)[C@H](CCc2ccccc2)N(C)C(=O)[C@H](COCC(=O)NC(C)(C)C)NC(=O)[C@H](CC(C)C)N(C)C(=O)C[C@@H](C(=O)N2CCCCC2)NC(=O)[C@H](C)N(C)C(=O)CN(C)C(=O)[C@H]([C@@H](C)O)NC(=O)[C@H](CCc2ccccc2)N(C)C(=O)[C@H](CC(C)C)N(C)C1=O` [AP16] ([NMeL]S(CH2CONHtBu)[NMehPhe][NMeL]L[NMeL][NMehPhe]T[Sar][NMeA]D-Piperidide; lactam N-11) stands 0.27 ×10⁻⁶ cm/s; under `CC(C)C[C@@H]1NC(=O)[C@H](Cc2ccccc2)N(C)C(=O)[C@@H]2CCCN2C(=O)C[C@@H](C(=O)N2CCCCC2)NC(=O)[C@H](Cc2ccccc2)N(C)C(=O)[C@H](Cc2ccccc2)N(C)C(=O)[C@H](COC(C)(C)C)NC(=O)[C@H](CC(C)C)N(C)C(=O)CN(C)C(=O)[C@H]([C@@H](C)O)NC(=O)[C@H](CC(C)C)N(C)C1=O` [pd203] (P[NMeF]L[NMeL]T[Sar][NMeL]S(tBu)[NMeF][NMeF]D-Piperidide; lactam N-11), 2.1 ×10⁻⁶ cm/s.
Still for that read-out and setting: under `CCCCN1CC(=O)N(C)[C@@H](Cc2ccccc2)C(=O)N(C)[C@@H](CC(C)C)C(=O)N[C@@H](COC(C)(C)C)C(=O)N(C)[C@@H](CC(C)C)C(=O)N[C@H](C(=O)N2CCCCC2)CC(=O)N(C)CC(=O)N(C)[C@@H](CCc2ccc(C(=O)NC)c(OC)c2)C(=O)N[C@@H](C(C)C)C(=O)N(C)[C@@H](CC(C)C)C(=O)N[C@@H]([C@@H](C)O)C1=O` [AP231] ([Sar][NMeHph(3-OMe-4-CONHMe)]V[NMeL]T[NBuGly][NMeF][NMeL]S(tBu)[NMeL]D-Piperidide; lactam N-11) stands 1 ×10⁻⁶ cm/s; under `CC[C@H]1C(=O)N[C@@H](Cc2ccc(O)cc2)C(=O)N(C)[C@@H](CC(C)C)C(=O)N(C)[C@@H](CC(C)C)C(=O)N[C@@H](C(C)C)C(=O)N(C)[C@@H](Cc2ccccc2)C(=O)N(C)[C@@H](CC(C)C)C(=O)N[C@@H]([C@@H](C)O)C(=O)N(C)CC(=O)N(C)[C@@H](CC(C)C)C(=O)N[C@H](C(=O)N2CCCCC2)CC(=O)N1C` [Compound F06] ([NMeAbu]Y[NMeL][NMeL]V[NMeF][NMeL]T[Sar][NMeL]D-Piperidide; lactam N-11), 0.23 ×10⁻⁶ cm/s; under `CC[C@H](C)[C@@H]1NC(=O)[C@H](CC(C)C)N(C)C(=O)CN(C)C(=O)C[C@@H](C(=O)N2CCCCC2)NC(=O)[C@H](C)N(C)C(=O)[C@H](COC(C)(C)C)NC(=O)[C@H](CC(C)C)N(C)C(=O)[C@H](CC(C)C)N(C)C(=O)CN(C)C(=O)[C@H](Cc2c[nH]c3ccccc23)NC(=O)[C@H](CC(C)C)N(C)C1=O` [pd103] ([Sar][NMeL]I[NMeL]W[Sar][NMeL][NMeL]S(tBu)[NMeA]D-Piperidide; lactam N-11), 0.093 ×10⁻⁶ cm/s.
Still for that read-out and setting: next, `CCCCN1CC(=O)N(C)[C@@H](Cc2cccc(Cl)c2)C(=O)N(C)[C@@H](CC(C)C)C(=O)N[C@@H](COC[C@@H](C)O)C(=O)N(C)[C@@H](CC(C)C)C(=O)N[C@H](C(=O)N2CCCCC2)CC(=O)N(C)CC(=O)N(C)[C@@H](Cc2ccccc2)C(=O)N[C@@H]([C@@H](C)CC)C(=O)N(C)[C@@H](CC(C)C)C(=O)N[C@@H]([C@@H](C)O)C1=O` [AP78] ([Sar][NMeF]I[NMeL]T[NBuGly][NMePhe(3-Cl)][NMeL]S(Propyl(2R-OH))[NMeL]D-Piperidide; lactam N-11): 0.24 ×10⁻⁶ cm/s; `CCCCN1CC(=O)N(C)[C@@H](CC(C)C)C(=O)N[C@@H](COCC(=O)NC(C)(C)C)C(=O)N(C)[C@@H](CCc2ccccc2)C(=O)N(C)[C@@H](C)C(=O)N[C@H](C(=O)N2CCCCC2)CC(=O)N[C@H](CC(C)C)C(=O)N(C)[C@@H](CC(C)C)C(=O)N[C@@H](Cc2ccccc2)C(=O)N(C)[C@@H](CC(C)C)C(=O)N[C@@H](C(C)O)C1=O` (stereo partly drawn) [AP12] ([dL][NMeL]F[NMeL][Thr(3ξ)][NBuGly][NMeL]S(CH2CONHtBu)[NMehPhe][NMeA]D-Piperidide; lactam N-11): 0.17 ×10⁻⁶ cm/s.
On to `CCCCN1CC(=O)N(C)[C@@H](Cc2ccccc2)C(=O)N(C)[C@@H](CC(C)C)C(=O)N[C@@H](COC(C)(C)C)C(=O)N(C)[C@@H](CC(C)C)C(=O)N[C@H](C(=O)N2CCCCC2)CC(=O)N(C)CC(=O)N(C)[C@@H](Cc2ccccc2)C(=O)N[C@@H](C(C)C)C(=O)N(C)[C@@H](CC(C)C)C(=O)N[C@@H](COC[C@@H](C)O)C1=O` [AP87] ([Sar][NMeF]V[NMeL]S(Propyl(2R-OH))[NBuGly][NMeF][NMeL]S(tBu)[NMeL]D-Piperidide; lactam N-11), for which the Papp worked out at 1 ×10⁻⁶ cm/s.
Still for that read-out and setting: under `CC(C)CCOC[C@@H]1NC(=O)[C@H](Cc2ccccc2)N(C)C(=O)[C@H](Cc2ccccc2)N(C)C(=O)[C@H](COCCC(C)(C)O)NC(=O)[C@H](CC(C)C)N(C)C(=O)CCCN(C)C(=O)C[C@@H](C(=O)N2CCCCC2)NC(=O)[C@H](CC(C)C)N(C)C(=O)[C@H](CC(C)C)N(C)C(=O)[C@H]([C@@H](C)O)NC(=O)[C@H](C(C)C)N(C)C1=O` [AP53] ([NMeGABA][NMeL]S(Butyl(3-Me,3-OH))[NMeF][NMeF]S(Isopentyl)[NMeV]T[NMeL][NMeL]D-Piperidide; lactam N-11) stands 0.74 ×10⁻⁶ cm/s.

The series is the same for the next values; noted with them: human, Caco-2, Caco-2 (membrane permeability).
`CCCCN1CC(=O)N(C)[C@@H](CC(C)C)C(=O)N[C@H](C(=O)N2CCCCC2)CC(=O)N(C)[C@@H](C)C(=O)N[C@@H](COCC(O)C(F)(F)F)C(=O)N(C)[C@@H](CC(C)C)C(=O)N(C)[C@@H](Cc2ccccc2)C(=O)N[C@@H](CC(C)C)C(=O)N(C)[C@@H](Cc2ccccc2)C(=O)N(C)[C@@H]([C@@H](C)CC)C(=O)N[C@@H]([C@@H](C)O)C1=O` (stereo partly drawn) [Compound C04] ([NMeA]S(CH2CH(OH)CF3)[NMeL][NMeF]L[NMeF][NMeI]T[NBuGly][NMeL]D-Piperidide; lactam N-11) showed an apparent permeability (Papp) of 0.29 ×10⁻⁶ cm/s.
The same measure, in the same setting: next, `CCCCN1CC(=O)N(C)[C@@H](Cc2ccccc2)C(=O)N[C@@H]([C@@H](C)CC)C(=O)N(C)[C@@H](CC(C)C)C(=O)N[C@@H]([C@@H](C)O)C(=O)N(CCCC)CC(=O)N(C)[C@@H](Cc2ccccc2)C(=O)N(C)[C@@H](CC(C)C)C(=O)N[C@@H](CCC(=O)NC)C(=O)N(C)[C@@H]([C@@H](C)CC)C(=O)N[C@H](C(=O)N2CCCCC2)CC1=O` [Compound J06] ([NBuGly][NMeF]I[NMeL]T[NBuGly][NMeF][NMeL]E(NHMe)[NMeI]D-Piperidide; lactam N-11): 0.0085 ×10⁻⁶ cm/s.
Same read-out and setting: next, `CC[C@H]1C(=O)N(C)[C@@H](Cc2ccccc2)C(=O)N[C@@H](CC(C)C)C(=O)N(C)[C@@H](Cc2ccccc2)C(=O)N(C)[C@@H](C(C)C)C(=O)N[C@@H](COCC(O)C(F)(F)F)C(=O)N(C)CC(=O)N(C)[C@@H](CC(C)C)C(=O)N[C@H](C(=O)N2CCCCC2)CC(=O)N(C)[C@@H](C)C(=O)N[C@@H](CC(C)C)C(=O)N1C` (stereo partly drawn) [Compound C14] ([NMeA]L[NMeAbu][NMeF]L[NMeF][NMeV]S(CH2CH(OH)CF3)[Sar][NMeL]D-Piperidide; lactam N-11): 2 ×10⁻⁶ cm/s; `CCCCN1CC(=O)N(C)[C@@H](Cc2ccccc2)C(=O)N[C@@H](CCC(=O)NC)C(=O)N(C)[C@@H](CC(C)C)C(=O)N[C@@H]([C@@H](C)O)C(=O)N(CCCC)CC(=O)N(C)[C@@H](Cc2ccccc2)C(=O)N(C)[C@@H](CC(C)C)C(=O)N[C@@H](CC(C)C)C(=O)N(C)[C@@H]([C@@H](C)CC)C(=O)N[C@H](C(=O)N2CCCCC2)CC1=O` [Compound J05] ([NBuGly][NMeF]E(NHMe)[NMeL]T[NBuGly][NMeF][NMeL]L[NMeI]D-Piperidide; lactam N-11): 0.052 ×10⁻⁶ cm/s.
